According to patent publication US5962513A, “2-aminomethyl-chromans effective in the treatment of psychoses and depression” (Bayer Aktiengesellschaft, priority 1991, dated 1999):
Where a name gives a salt, the structure may show the parent alone.

Assays:
5-HT1 receptor = experiment: Affinity for the 5-HT1 receptor, 3H-serotonin binding to calf hippocampus membranes; conditions: 3H-serotonin radioligand
Source text: 1.) Affinity for the 5-HT1 receptor
The high affinity of the compounds according to the invention for 5-hydroxytryptamine receptors of the sub-type 1 is shown by way of example in Table A. The values given are data which have been determined from receptor binding studies using calf hippocampus membrane preparations. ^3 H-Serotonin was used as the radioactively labelled ligand for this.

5-HT1A receptor = molecular target: T1, 5-HT1A receptor (Bos taurus, UniProt F6Q2H9); experiment: Affinity for the 5-HT1A receptor, 3H-ipsapiron binding to calf hippocampus membranes; conditions: 3H-ipsapiron radioligand
T1 construct: 5-HT1A receptors in calf hippocampus membranes; from tissue; host or cells: calf hippocampus membranes
T1 sequence (F6Q2H9 1-422): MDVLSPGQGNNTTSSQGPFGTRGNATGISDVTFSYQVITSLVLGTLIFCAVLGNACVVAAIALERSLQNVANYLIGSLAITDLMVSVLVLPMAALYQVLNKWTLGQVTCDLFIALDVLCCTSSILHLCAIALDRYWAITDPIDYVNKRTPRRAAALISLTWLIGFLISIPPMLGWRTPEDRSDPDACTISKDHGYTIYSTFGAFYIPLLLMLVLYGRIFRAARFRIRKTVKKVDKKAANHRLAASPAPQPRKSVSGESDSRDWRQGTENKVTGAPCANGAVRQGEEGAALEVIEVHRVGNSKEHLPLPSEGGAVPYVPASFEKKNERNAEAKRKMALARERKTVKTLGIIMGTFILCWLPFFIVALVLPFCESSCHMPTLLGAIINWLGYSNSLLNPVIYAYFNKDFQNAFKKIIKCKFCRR
Protocol: 2.) Affinity for the 5-HT1A receptor [W. U. Dompert et al., Naunyn-Schmeideberg's Arch. Pharmacol. (1985), 328, 467-470]. In this test, the binding of ^3 H-ipsapiron to 5-HT1A receptors in calf hippocampus membranes is measured.

sigma receptor = experiment: Affinity for the sigma receptor, DTG binding to calf hippocampus membranes; conditions: 3-di-o-tolyl-guanidine (DTG), Ki calculated from IC50
Protocol: 3.) Affinity for the sigma receptor The sigma receptor binding test is described in detail by E. Weber et al. (1986), Proc. Natl. Acad. Sci. 83, 8784-8788 and M. P. Kavanaugh et al., (1988), Proc. Natl. Acad. Sci. 85, 2844. […] In this binding test, IC50 values which indicate the test substance concentration at which 50% of the binding of the radioligand is suppressed are determined. The inhibition constants Ki are calculated from these taking into account the dissociation constants and the concentration of radioligands.

| Structure (SMILES) | Ki (5-HT1 receptor) [nM] | Ki (5-HT1A receptor) [nM] | Ki (sigma receptor) [nM] |
| --- | --- | --- | --- |
| c1ccc2c(c1)CCC(CNCC1CC1)O2 (stereo not drawn) [Example 28] | – | 2.3 | – |
| COc1cccc2c1OC(CNCC1CCCCC1)CC2 (stereo not drawn) [Example 17, N-Cyclohexylmethyl-2-aminomethyl-8-methoxychroman hydrochloride] | – | 0.7 | 8 |
| CN(CC1CCN(Cc2ccccc2)CC1)CC1CCc2ccccc2O1 (stereo not drawn) [Example 35] | – | 28 | – |
| COc1ccc(CNCC2CCc3cccc(OC)c3O2)cc1 (stereo not drawn) [Example 23] | 5 | – | 30 |
| c1ccc(CN2CCC(CNCC3CCc4ccccc4O3)CC2)cc1 (stereo not drawn) [Example 36] | – | 0.5 | 25 |
| c1ccc2c(c1)CCC(CNCC13CC4CC(CC(C4)C1)C3)O2 (stereo not drawn) [Example 31] | – | 4.2 | 16 |

Further lines, results first:

| Ki (5-HT1 receptor) [nM] | Ki (5-HT1A receptor) [nM] | Ki (sigma receptor) [nM] | Structure (SMILES) |
| --- | --- | --- | --- |
| 6 | – | – | COc1cccc2c1OC(CNCc1ccc(C(F)(F)F)cc1)CC2 (stereo not drawn) [Example 22] |
| 3 | – | – | CC(CCCNCC1CCc2ccccc2O1)c1ccccc1 (stereo not drawn) [Example 18] |
| – | – | 7 | c1ccc2c(c1)CC[C@@H](CNCC1CCCCCC1)O2 [Example 1, S-(+)-2-(N-Cycloheptylmethyl)aminomethyl-chroman hydrochloride] |
| 36 | – | 5 | COc1cccc2c1O[C@@H](CN(C)CC1CCCCCC1)CC2 [Example 13, 2-(R)-2-(N-Cycloheptylmethyl-N-methyl)aminomethyl-8-methoxy-chroman hydrochloride] |
